A word on the IC50: it is the midpoint of a concentration-inhibition curve. Read a low IC50 as inhibition by little substance. Broadly, the Inhibition is the drop in the measured response relative to a control, in per cent. Low values mean a response near the control, high ones a response far below the control.

Assay [1] addresses T1, Leukotriene B4 receptor 1 (Homo sapiens, UniProt Q15722). The assay is described as follows: Antagonistic activity in human polymorphonuclear (PMN) LTB4 receptor. Format: functional.
Assay [2] can be described thus: Effect on LTB4-induced neutrophil function (neutrophilia) after systemic administration of 0.3 micro/kg to cynomolgus monkey. Format: functional, Cercopithecidae.
Assay [3] is described as follows: Effect on LTB4-induced neutrophil function (neutropenia) after systemic administration of 0.3 micro/kg to cynomolgus monkey. Format: functional, Cercopithecidae.
For assay [4], the target named is T1, Leukotriene B4 receptor 1. The assay is described as follows: Antagonistic activity against human polymorphonuclear (PMN) LTB4 receptor. Format: functional.

T1 sequence (Q15722 whole entry): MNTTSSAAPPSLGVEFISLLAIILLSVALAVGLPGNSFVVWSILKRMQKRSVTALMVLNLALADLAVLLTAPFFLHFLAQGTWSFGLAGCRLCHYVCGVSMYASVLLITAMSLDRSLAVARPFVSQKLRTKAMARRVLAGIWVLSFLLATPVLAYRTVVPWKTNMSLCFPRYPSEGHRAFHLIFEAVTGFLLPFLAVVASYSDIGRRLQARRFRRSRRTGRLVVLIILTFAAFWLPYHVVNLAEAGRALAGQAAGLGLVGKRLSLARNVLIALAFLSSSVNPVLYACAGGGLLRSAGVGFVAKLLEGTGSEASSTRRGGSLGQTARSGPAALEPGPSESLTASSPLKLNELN

`CN(CCc1ccccc1)C(=O)Cc1ccc(OCc2ccccc2)cc1` showed an IC50 in assay [1] of 4.7 µM. With `CN(CCc1ccccc1)C(=O)Cc1cc(C(=O)O)cc2c(OCc3ccccc3)cccc12`, the Inhibition in assay [2] is listed as 73%; in assay [3], 61%. Compound `COc1ccc(/C=C/CCCCOc2ccc(C(=O)c3cccc(C(=O)O)c3)cc2CCC(=O)O)cc1` came in with an IC50 in assay [4] of 0.012 µM.

The values above are taken from ChEMBL document CHEMBL1126258, “4-[2-[Methyl(2-phenethyl)amino]-2-oxoethyl]-8-(phenylmethoxy)-2- naphthalenecarboxylic acid: a high affinity, competitive, orally active leukotriene B4 receptor antagonist” (J Med Chem, 1992).
